For the assay, the system named is RIV aptamer (DNA, aptamer) TAGGGAAGAGAAGGACATATGATGACTCACAACTGGACGAACGTACTTATCCCCCCCAATCACTAGTGAATT
In words: square-wave voltammetry aptasensor. Conditions: K+ 0.01 M (KCl); [Fe(CN)6]3−/4−; concentration tested not stated.
Take `OC[C@H]1OC(O)[C@H](O)[C@@H](O)[C@@H]1O` (some centres unmarked): the binding result is “no”.
With `NCC(=O)O` the entry was “no”; with `N=C(N)NCCC[C@H](N)C(=O)O`, “weak”; with `O=C(O)[C@@H]1CCCN1`, “weak”.
With `N[C@@H](CS)C(=O)O` the entry was “weak”.

(Values after publication PMC9599351 (2022).)
